From ChEMBL document CHEMBL1201862, “PubChem BioAssay data set” (2004)
Calls of active or inactive are those of the source.

Key:
Format in all cases: functional
[1] = biological target: T1, Caspase-3 (Homo sapiens, UniProt P42574);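 also: Dose-response selectivity test against caspase-3 for candidate inhibitors of sentrin-specific proteases (SENPs)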
T1 sequence (P42574 whole entry): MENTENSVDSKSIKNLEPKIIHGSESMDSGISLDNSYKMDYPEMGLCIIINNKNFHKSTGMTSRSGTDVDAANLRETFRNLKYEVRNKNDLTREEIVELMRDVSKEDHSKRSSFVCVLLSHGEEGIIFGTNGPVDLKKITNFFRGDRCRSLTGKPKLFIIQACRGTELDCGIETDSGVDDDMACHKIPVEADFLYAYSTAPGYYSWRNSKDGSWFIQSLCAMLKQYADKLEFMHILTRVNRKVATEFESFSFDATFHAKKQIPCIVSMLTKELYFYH

[2] = biological target: T2, Sentrin-specific protease 8 (Homo sapiens, UniProt Q96LD8);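 also: luminescence read-out of SENP8 inhibition, dose-response confirmation following an ultra-high-throughput screen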
T2 sequence (Q96LD8 whole entry): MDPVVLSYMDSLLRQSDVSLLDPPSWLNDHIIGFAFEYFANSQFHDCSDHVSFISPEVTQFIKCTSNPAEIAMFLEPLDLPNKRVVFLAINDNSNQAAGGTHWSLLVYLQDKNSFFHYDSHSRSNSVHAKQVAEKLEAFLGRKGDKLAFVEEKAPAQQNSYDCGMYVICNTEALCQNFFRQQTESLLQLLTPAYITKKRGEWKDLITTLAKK

[3] = biological target: Tyrosine-protein kinase Lck (Homo sapiens, UniProt P06239);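 also: lck was assayed as one member of a kinase panel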
[4] = biological target: Death-associated protein kinase 3 (Homo sapiens, UniProt O43293);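 also: measured as one member of a kinome-wide profiling panel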
[5] = biological target: Activin receptor type-1 (Homo sapiens, UniProt Q04771); experiment: Navigating the Kinome. Panel member name: ACVR1
[6] = biological target: Serine/threonine-protein kinase PAK 4 (Homo sapiens, UniProt O96013);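 also: value obtained within a kinome profiling panel in which PAK4 was one of the panel members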
[7] = biological target: High affinity nerve growth factor receptor (Homo sapiens, UniProt P04629);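 also: NTRK1 tested as one member of a kinome-wide profiling panel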
[8] = biological target: Glycogen synthase kinase-3 alpha (Homo sapiens, UniProt P49840);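 also: GSK3A result taken from a broad kinome-wide kinase panel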
[9] = biological target: T3, Receptor-type tyrosine-protein kinase FLT3 (Homo sapiens, UniProt P36888);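 also: FLT3 was tested as one member of a kinome-wide kinase panel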
T3 sequence (P36888 whole entry): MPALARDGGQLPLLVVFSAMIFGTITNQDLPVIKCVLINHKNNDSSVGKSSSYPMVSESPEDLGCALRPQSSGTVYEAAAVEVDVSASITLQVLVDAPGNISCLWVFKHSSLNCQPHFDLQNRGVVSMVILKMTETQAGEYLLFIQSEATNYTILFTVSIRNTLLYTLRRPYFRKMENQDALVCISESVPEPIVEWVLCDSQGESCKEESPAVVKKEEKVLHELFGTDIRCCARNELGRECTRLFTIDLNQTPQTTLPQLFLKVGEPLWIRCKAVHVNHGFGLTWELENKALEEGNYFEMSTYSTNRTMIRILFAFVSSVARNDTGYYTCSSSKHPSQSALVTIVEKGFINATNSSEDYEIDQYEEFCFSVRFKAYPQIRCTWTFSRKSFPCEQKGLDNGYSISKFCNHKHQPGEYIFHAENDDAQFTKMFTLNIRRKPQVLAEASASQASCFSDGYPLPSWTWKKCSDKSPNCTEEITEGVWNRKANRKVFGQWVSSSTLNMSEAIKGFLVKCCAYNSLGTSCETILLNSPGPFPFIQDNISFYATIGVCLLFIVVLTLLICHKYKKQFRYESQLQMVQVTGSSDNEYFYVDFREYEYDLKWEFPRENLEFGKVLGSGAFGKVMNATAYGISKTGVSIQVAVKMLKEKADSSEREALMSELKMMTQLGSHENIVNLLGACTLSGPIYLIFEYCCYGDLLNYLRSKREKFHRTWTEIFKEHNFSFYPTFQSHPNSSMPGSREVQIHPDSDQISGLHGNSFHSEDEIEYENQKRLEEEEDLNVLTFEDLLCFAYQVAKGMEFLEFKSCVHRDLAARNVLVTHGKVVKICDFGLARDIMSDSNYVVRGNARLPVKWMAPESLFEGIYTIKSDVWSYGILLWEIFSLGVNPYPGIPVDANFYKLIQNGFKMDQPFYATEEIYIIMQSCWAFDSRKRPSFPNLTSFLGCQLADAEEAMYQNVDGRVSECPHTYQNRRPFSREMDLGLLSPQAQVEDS

[10] = biological target: T4, Serine/threonine-protein kinase Nek2 (Homo sapiens, UniProt P51955)
T4 sequence (P51955 whole entry): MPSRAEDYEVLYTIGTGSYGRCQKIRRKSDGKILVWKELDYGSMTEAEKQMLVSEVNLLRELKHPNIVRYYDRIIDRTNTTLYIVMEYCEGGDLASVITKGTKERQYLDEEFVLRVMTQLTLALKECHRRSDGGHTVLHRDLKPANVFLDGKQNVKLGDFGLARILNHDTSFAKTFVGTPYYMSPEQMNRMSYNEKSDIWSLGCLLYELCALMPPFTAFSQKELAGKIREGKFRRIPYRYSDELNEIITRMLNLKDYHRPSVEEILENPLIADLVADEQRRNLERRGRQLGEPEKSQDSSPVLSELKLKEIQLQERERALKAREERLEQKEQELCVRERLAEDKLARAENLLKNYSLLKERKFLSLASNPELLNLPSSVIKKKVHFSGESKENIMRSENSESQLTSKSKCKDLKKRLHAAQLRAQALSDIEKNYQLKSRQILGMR

[11] = biological target: Cyclin-dependent kinase 8 (Homo sapiens, UniProt P49336); experiment: Navigating the Kinome. Panel member name: CDK8
[12] = biological target: Cyclin-dependent kinase 7 (Homo sapiens, UniProt P50613);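 also: value comes from a kinome-wide kinase profiling panel in which CDK7 is one member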
[13] = biological target: Glycogen synthase kinase-3 beta (Homo sapiens, UniProt P49841);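 also: value comes from a broad kinome profiling panel, with GSK3B as the panel member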
[14] = biological target: Mitogen-activated protein kinase kinase kinase kinase 4 (Homo sapiens, UniProt O95819)
[15] = biological target: Mitogen-activated protein kinase 14 (Homo sapiens, UniProt Q16539);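 also: part of a kinome-wide panel, MAPK14 entry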
[16] = biological target: Protein kinase C theta type (Homo sapiens, UniProt Q04759); experiment: Navigating the Kinome. Panel member name: PRKCQ
[17] = biological target: Tyrosine-protein kinase JAK2 (Homo sapiens, UniProt O60674);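 also: JAK2 tested as one member of a kinase panel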
[18] = biological target: Mitogen-activated protein kinase kinase kinase kinase 2 (Homo sapiens, UniProt Q12851);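 also: measured as one member of a kinome-wide kinase panel, with MAP4K2 as the panel entry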
[19] = biological target: cAMP-dependent protein kinase catalytic subunit alpha (Homo sapiens, UniProt P17612)
[20] = biological target: Macrophage colony-stimulating factor 1 receptor (Homo sapiens, UniProt P07333);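 also: value comes from the Navigating the Kinome screening panel, CSF1R member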
Chain of Macrophage colony-stimulating factor 1 receptor (P07333 whole entry): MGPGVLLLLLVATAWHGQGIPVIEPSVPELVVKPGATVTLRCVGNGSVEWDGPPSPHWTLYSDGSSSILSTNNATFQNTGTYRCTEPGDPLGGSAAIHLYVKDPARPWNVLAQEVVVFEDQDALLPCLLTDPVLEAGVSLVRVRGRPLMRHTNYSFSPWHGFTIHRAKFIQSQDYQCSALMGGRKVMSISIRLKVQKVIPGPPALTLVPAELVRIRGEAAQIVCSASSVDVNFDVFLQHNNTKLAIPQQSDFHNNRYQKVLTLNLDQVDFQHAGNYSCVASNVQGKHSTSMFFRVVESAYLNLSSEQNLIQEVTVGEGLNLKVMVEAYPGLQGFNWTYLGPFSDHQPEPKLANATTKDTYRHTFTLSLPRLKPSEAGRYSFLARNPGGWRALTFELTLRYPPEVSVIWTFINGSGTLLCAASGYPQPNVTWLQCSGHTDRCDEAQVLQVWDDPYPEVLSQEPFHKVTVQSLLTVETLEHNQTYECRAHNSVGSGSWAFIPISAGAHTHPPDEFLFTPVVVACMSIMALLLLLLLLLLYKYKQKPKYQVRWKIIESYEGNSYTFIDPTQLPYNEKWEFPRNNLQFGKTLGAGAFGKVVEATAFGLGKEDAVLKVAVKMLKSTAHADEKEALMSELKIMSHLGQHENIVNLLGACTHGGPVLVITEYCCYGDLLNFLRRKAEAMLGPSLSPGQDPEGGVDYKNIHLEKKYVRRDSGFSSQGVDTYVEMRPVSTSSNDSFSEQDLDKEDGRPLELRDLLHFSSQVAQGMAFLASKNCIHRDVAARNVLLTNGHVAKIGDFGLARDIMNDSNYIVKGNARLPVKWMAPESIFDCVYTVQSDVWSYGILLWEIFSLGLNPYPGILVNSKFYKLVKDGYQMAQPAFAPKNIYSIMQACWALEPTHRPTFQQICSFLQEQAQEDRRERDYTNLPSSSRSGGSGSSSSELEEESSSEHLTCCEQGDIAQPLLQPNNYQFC

Chain of Death-associated protein kinase 3 (O43293 whole entry): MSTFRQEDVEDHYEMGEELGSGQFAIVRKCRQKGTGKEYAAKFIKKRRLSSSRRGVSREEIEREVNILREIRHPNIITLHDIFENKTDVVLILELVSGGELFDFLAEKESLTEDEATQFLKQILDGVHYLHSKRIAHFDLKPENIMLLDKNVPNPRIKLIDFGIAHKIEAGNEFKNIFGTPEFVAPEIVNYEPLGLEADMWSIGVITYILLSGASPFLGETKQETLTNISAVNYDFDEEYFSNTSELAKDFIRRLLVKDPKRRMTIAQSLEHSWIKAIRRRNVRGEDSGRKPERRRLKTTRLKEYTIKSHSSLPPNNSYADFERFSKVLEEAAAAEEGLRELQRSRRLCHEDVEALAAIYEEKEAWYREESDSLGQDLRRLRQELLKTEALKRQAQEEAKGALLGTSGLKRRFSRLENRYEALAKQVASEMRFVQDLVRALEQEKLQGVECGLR
Chain of High affinity nerve growth factor receptor (P04629 whole entry): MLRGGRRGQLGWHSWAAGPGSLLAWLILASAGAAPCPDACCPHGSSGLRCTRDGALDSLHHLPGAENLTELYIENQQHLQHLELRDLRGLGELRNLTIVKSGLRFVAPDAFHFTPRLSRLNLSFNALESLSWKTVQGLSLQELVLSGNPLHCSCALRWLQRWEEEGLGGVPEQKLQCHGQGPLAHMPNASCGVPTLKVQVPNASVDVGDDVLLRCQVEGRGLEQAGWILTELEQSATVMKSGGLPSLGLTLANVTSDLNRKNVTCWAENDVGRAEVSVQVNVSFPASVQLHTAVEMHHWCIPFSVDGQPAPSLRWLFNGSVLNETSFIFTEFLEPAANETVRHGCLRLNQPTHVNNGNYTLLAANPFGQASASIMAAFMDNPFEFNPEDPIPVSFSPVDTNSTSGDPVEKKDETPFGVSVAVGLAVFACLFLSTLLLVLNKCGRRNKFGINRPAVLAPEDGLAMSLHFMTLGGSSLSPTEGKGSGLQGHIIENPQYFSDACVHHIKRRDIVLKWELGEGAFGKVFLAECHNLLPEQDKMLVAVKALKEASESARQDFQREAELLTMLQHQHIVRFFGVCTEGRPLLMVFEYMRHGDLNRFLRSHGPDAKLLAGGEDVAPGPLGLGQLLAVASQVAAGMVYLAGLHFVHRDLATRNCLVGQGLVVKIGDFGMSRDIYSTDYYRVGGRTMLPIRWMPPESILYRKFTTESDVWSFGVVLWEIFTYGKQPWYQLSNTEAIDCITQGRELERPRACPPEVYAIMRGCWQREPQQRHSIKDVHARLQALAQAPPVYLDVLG
Chain of Glycogen synthase kinase-3 beta (P49841 whole entry): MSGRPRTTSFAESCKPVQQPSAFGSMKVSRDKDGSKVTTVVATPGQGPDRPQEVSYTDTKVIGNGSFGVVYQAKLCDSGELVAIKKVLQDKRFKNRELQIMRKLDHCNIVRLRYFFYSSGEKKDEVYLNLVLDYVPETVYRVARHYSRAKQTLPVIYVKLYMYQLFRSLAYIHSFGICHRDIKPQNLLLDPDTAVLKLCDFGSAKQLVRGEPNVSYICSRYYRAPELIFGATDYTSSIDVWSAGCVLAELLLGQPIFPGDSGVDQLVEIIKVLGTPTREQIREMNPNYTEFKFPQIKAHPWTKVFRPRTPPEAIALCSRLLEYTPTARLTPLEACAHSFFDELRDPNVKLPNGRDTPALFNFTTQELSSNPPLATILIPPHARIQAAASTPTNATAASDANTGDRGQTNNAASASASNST
Chain of Glycogen synthase kinase-3 alpha (P49840 whole entry): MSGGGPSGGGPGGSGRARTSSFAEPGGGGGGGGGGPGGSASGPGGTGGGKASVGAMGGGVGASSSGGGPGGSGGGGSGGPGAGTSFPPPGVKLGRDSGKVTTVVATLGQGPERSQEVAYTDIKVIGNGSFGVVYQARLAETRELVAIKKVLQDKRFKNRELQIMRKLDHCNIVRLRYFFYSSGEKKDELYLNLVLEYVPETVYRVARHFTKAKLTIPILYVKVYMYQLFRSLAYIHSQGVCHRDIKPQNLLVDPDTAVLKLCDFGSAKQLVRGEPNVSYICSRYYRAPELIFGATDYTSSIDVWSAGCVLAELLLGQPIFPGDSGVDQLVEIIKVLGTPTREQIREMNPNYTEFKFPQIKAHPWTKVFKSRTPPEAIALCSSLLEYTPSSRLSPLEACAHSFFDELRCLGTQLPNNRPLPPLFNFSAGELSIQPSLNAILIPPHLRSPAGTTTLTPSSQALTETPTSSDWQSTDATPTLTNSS
Chain of Mitogen-activated protein kinase 14 (Q16539 whole entry): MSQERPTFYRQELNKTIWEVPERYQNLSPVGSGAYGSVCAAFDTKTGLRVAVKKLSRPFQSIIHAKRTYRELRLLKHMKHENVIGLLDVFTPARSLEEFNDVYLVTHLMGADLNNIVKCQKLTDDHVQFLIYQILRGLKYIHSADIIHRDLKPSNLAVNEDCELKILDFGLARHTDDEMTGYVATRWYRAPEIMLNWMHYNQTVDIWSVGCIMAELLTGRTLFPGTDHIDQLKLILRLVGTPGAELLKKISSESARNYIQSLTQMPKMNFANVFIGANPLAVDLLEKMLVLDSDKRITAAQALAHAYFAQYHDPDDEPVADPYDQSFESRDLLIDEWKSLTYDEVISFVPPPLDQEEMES
Chain of Protein kinase C theta type (Q04759 whole entry): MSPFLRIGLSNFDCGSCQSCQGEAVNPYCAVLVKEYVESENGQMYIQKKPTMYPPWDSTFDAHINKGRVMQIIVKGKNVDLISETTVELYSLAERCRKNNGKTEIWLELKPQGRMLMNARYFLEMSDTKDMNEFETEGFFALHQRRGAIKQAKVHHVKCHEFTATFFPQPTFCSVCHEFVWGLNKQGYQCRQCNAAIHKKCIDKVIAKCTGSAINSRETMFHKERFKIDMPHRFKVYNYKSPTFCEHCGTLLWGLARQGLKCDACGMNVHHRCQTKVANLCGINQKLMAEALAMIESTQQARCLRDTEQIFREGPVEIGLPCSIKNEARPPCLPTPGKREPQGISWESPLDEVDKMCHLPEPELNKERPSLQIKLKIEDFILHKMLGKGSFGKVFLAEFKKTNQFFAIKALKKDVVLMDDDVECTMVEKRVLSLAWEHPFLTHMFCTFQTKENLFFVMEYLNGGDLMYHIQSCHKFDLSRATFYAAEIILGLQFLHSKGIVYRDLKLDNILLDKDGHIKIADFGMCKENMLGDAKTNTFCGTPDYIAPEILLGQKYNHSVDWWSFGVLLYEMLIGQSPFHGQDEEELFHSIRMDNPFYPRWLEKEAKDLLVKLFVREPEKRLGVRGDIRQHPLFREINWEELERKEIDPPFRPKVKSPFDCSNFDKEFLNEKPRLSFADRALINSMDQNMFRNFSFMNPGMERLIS
Chain of Mitogen-activated protein kinase kinase kinase kinase 2 (Q12851 whole entry): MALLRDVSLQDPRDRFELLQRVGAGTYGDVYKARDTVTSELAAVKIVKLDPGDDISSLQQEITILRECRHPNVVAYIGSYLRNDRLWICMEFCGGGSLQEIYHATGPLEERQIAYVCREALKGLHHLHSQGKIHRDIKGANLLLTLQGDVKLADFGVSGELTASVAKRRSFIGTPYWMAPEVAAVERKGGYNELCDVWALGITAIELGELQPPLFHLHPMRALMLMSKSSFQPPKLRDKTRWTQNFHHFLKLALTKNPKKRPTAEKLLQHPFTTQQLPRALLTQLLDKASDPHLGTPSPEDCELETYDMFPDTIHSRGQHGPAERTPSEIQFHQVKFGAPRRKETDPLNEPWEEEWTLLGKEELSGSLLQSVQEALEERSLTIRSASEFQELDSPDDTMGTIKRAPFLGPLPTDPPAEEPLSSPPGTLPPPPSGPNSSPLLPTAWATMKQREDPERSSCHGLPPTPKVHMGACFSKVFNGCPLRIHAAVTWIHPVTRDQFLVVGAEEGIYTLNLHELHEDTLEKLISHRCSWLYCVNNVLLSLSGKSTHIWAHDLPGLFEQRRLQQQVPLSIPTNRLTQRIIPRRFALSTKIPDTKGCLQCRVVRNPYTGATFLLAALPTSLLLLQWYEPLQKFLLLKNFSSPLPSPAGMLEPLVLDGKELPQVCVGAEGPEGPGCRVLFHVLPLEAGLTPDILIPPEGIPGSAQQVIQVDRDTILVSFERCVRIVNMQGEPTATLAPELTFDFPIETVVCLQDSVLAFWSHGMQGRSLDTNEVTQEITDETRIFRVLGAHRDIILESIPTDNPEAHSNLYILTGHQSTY

Row | Ki [3] | Ki [5] | Ki [6] | Ki [7] | Ki [8] | Ki [9] | Ki [10] | Ki [11] | Ki [12] | Ki [13] | Ki [14] | Structure (SMILES) | IC50 [1] | IC50 [2] | Ki [4] | Ki [15] | Ki [16] | Ki [17] | Ki [18] | Ki [19] | Ki [20]
1 | – | – | – | – | – | – | – | – | – | – | – | Cc1ccc(NC2=C(NCCO)C(=O)c3ccccc3C2=O)cc1 | 11.4 µM (active) | 9.12 µM (active) | – | – | – | – | – | – | –
2 | – | – | – | – | – | – | – | – | – | – | – | CC(/C=C1\SC(=S)N(NS(=O)(=O)c2ccc(C)cc2)C1=O)=C\c1ccccc1 | 12.9 µM (active) | 3.94 µM (active) | – | – | – | – | – | – | –
3 | > 6.31 µM (inactive) | 3.16 µM (active) | 3.98 µM (active) | 1 µM (active) | > 3.98 µM (inactive) | > 3.16 µM (inactive) | 1.26 µM (active) | 1 µM (active) | 3.98 µM (active) | 1.58 µM (active) | > 5.01 µM (inactive) | Cc1ccc(C)c(NC(=O)c2cc(-c3ccco3)nc3ccccc23)c1 | – | – | 5.01 µM (active) | > 3.98 µM (inactive) | – | – | – | – | –
4 | > 6.31 µM (inactive) | 0.631 µM (active) | 2 µM (active) | > 3.16 µM (inactive) | > 3.98 µM (inactive) | 2.51 µM (active) | 0.2 µM (active) | > 3.98 µM (inactive) | > 3.98 µM (inactive) | > 3.98 µM (inactive) | 0.398 µM (active) | COc1ccc(C2=NNc3cccc4c(OC)ccc2c34)cc1OC | – | – | 0.794 µM (active) | – | 1.58 µM (active) | 1 µM (active) | 2 µM (active) | > 1.26 µM (inactive) | > 2.51 µM (inactive)

Row | Structure (SMILES) | Ki [3] | Ki [5] | Ki [6] | Ki [7] | Ki [8] | Ki [9] | Ki [10] | Ki [11] | Ki [12] | Ki [13] | Ki [14] | IC50 [1] | IC50 [2] | Ki [4] | Ki [15] | Ki [16] | Ki [17] | Ki [18] | Ki [19] | Ki [20]
5 | CN1CCC(c2c(O)cc(O)c3c(=O)cc(-c4ccccc4Cl)oc23)C(O)C1 (centres undefined) | – | – | – | > 2.51 µM (inactive) | – | > 2.51 µM (inactive) | > 6.31 µM (inactive) | – | – | – | – | – | – | > 3.16 µM (inactive) | 3.98 µM (active) | 0.0794 µM (active) | > 2 µM (inactive) | 1 µM (active) | > 3.98 µM (inactive) | > 2.51 µM (inactive)
